Measured values as given in PubChem BioAssay AID248 (DTP/NCI, 2004).
Several values for one entry are separate records, joined by “and”; a condition that tells them apart may be missing. Equal entries are not always repeated. Toxic doses and inconclusive results are not listed. No stated cut-off is given here; in the data, active means T/C of 150% or more; inactive means T/C below 125%.

Tested on: L1210 leukemia ip in BDF1 mice, survival T/C
Assay: NCI In Vivo Anticancer Drug Screen. Data for tumor model L1210 Leukemia (intraperitoneal) in B6D2F1 (BDF1) mice
Conditions: endpoint: mean survival time, higher = longer survival
Method in brief: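 Ratio derived from survival: compound-dosed mice over vehicle-dosed mice, all bearing a transplantable tumor.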

[1] = dose: 100.0 mg/kg/injection, schedule: Q01DX001 (ip), vehicle: saline
[2] = dose: 200.0 mg/kg/injection, schedule: Q01DX001 (ip), vehicle: saline
[3] = dose: 400.0 mg/kg/injection, schedule: Q01DX001 (ip), vehicle: saline
[4] = dose: 100.0 mg/kg/injection, schedule: Q01DX009 (ip), vehicle: saline with Tween-80
[5] = dose: 100.0 mg/kg/injection, schedule: Q04DX003 (ip), vehicle: saline with Tween-80
[6] = dose: 200.0 mg/kg/injection, schedule: Q01DX009 (ip), vehicle: saline with Tween-80
[7] = dose: 200.0 mg/kg/injection, schedule: Q04DX003 (ip), vehicle: saline with Tween-80
[8] = dose: 400.0 mg/kg/injection, schedule: Q01DX009 (ip), vehicle: saline with Tween-80
[9] = dose: 400.0 mg/kg/injection, schedule: Q04DX003 (ip), vehicle: saline with Tween-80
[10] = dose: 100.0 mg/kg/injection, schedule: Q04DX002 (ip), vehicle: saline with Tween-80
[11] = dose: 200.0 mg/kg/injection, schedule: Q04DX002 (ip), vehicle: saline with Tween-80
[12] = dose: 400.0 mg/kg/injection, schedule: Q04DX002 (ip), vehicle: saline with Tween-80
[13] = dose: 100.0 mg/kg/injection, schedule: Q04DX003 (ip), vehicle: Klucel (hydroxypropylcellulose) (HPC)
[14] = dose: 200.0 mg/kg/injection, schedule: Q04DX003 (ip), vehicle: Klucel (hydroxypropylcellulose) (HPC)
[15] = dose: 400.0 mg/kg/injection, schedule: Q04DX003 (ip), vehicle: Klucel (hydroxypropylcellulose) (HPC)
[16] = dose: 100.0 mg/kg/injection, schedule: Q04DX002 (ip), vehicle: Klucel (hydroxypropylcellulose) (HPC)
[17] = dose: 200.0 mg/kg/injection, schedule: Q04DX002 (ip), vehicle: Klucel (hydroxypropylcellulose) (HPC)
[18] = dose: 400.0 mg/kg/injection, schedule: Q04DX002 (ip), vehicle: Klucel (hydroxypropylcellulose) (HPC)
[19] = dose: 100.0 mg/kg/injection, schedule: Q04DX003 (ip), vehicle: other
[20] = dose: 200.0 mg/kg/injection, schedule: Q04DX003 (ip), vehicle: other
[21] = dose: 100.0 mg/kg/injection, schedule: Q01DX001 (ip), vehicle: Klucel (hydroxypropylcellulose) (HPC)
[22] = dose: 200.0 mg/kg/injection, schedule: Q01DX001 (ip), vehicle: Klucel (hydroxypropylcellulose) (HPC)
[23] = dose: 400.0 mg/kg/injection, schedule: Q01DX001 (ip), vehicle: Klucel (hydroxypropylcellulose) (HPC)
[24] = dose: 100.0 mg/kg/injection, schedule: Q01DX009 (ip), vehicle: Klucel (hydroxypropylcellulose) (HPC)
[25] = dose: 200.0 mg/kg/injection, schedule: Q01DX009 (ip), vehicle: Klucel (hydroxypropylcellulose) (HPC)

Measured: T/C

O=C(CNC(=O)OCc1ccccc1)Nc1ccc(S(=O)(=O)c2ccc(NC(=O)CNC(=O)OCc3ccccc3)cc2)cc1
inactive: dose: 50.0 mg/kg/injection, schedule: Q01DX001 (ip), vehicle: saline 96 % of control | [1] 96 % of control | [2] 96 % of control | [3] 90 % of control

CCN(C(=O)C(F)(F)F)C1(c2ccc(Cl)cc2)CCCCC1SSSC1CCCCC1(c1ccc(Cl)cc1)N(CC)C(=O)C(F)(F)F (configuration not stated)
inactive: [4] 106 % of control | [5] 87 % of control | [6] 98 % of control | [7] 89 % of control | [8] 108 % of control | [9] 89 % of control

CCC(Cl)COP(=O)(OCC(Cl)CC)C(C(C)C)P(=O)(OCC(Cl)CC)OCC(Cl)CC (configuration not stated)
inactive: [10] 96 % of control | [11] 100 % of control | [12] 89 % of control

ClCc1ccc2c(c1)OCO2
inactive: [13] 104 % of control | [14] 101 % of control | [15] 98 % of control

Cc1cc(C)c2ccc(SC#N)c-2c(C)c1
inactive: dose: 100.0 mg/kg/injection, schedule: Q01DX001 (ip), vehicle: carboxymethylcellulose (CMC) 106 % of control | dose: 200.0 mg/kg/injection, schedule: Q01DX001 (ip), vehicle: carboxymethylcellulose (CMC) 95 % of control | dose: 400.0 mg/kg/injection, schedule: Q01DX001 (ip), vehicle: carboxymethylcellulose (CMC) 101 % of control

CC(=O)Oc1ccc2c3c(c(=O)oc2c1)C(C)(C)c1c(c(=O)oc2cc(OC(C)=O)ccc12)C3(C)C
inactive: dose: 100.0 mg/kg/injection, schedule: Q01DX009 (ip), vehicle: saline sonified 97 % of control | dose: 100.0 mg/kg/injection, schedule: Q04DX003 (ip), vehicle: saline sonified 102 % of control | dose: 200.0 mg/kg/injection, schedule: Q01DX009 (ip), vehicle: saline sonified 98 % of control | dose: 200.0 mg/kg/injection, schedule: Q04DX003 (ip), vehicle: saline sonified 97 % of control | dose: 400.0 mg/kg/injection, schedule: Q01DX009 (ip), vehicle: saline sonified 98 % of control | dose: 400.0 mg/kg/injection, schedule: Q04DX003 (ip), vehicle: saline sonified 105 % of control

O=C(O)CC(CO)C(c1ccccc1)c1ccccc1 (configuration not stated)
inactive: [16] 97 % of control | [17] 97 % of control

CC1CC=C(/C=N/NC(N)=O)C(C)O1 (configuration not stated)
inactive: dose: 50.0 mg/kg/injection, schedule: Q01DX009 (ip), vehicle: saline with Tween-80 94 % of control | [4] 88 % of control | [6] 94 % of control

O=S1(=O)CC(c2ccccc2)(c2ccccc2)N1
inactive: [16] 108 % of control | [17] 112 % of control | [18] 96 % of control

NC(CCl)=NCC1CCCC1
inactive: dose: 12.5 mg/kg/injection, schedule: Q04DX002 (ip), vehicle: Klucel (hydroxypropylcellulose) (HPC) 96 % of control | dose: 25.0 mg/kg/injection, schedule: Q04DX002 (ip), vehicle: Klucel (hydroxypropylcellulose) (HPC) 96 % of control | dose: 50.0 mg/kg/injection, schedule: Q04DX002 (ip), vehicle: Klucel (hydroxypropylcellulose) (HPC) 96 % of control

CC(C)=CCCC(C)CCOc1ccc(C(C)C)cc1 (configuration not stated)
inactive: [10] 108 % of control | [11] 96 % of control | [12] 103 % of control

CC(C)SCC(NC(=O)/C=C/c1ccccc1)C(=O)O (configuration not stated)
inactive: dose: 50.0 mg/kg/injection, schedule: Q04DX003 (ip), vehicle: other 97 % of control | [19] 101 % of control | [20] 95 % of control

C=CCCCCCCCCC(=O)NCc1cccnc1
inactive: [4] 96 % of control | [6] 94 % of control | [8] 102 % of control

O=S(=O)(O)/C(=C\c1ccccc1)c1ccccc1 (tested in a mixture with another compound)
inactive: [1] 103 % of control | [19] 106 % of control | [2] 104 % of control | [20] 106 % of control | dose: 264.0 mg/kg/injection, schedule: Q01DX001 (ip), vehicle: other 108 % of control | dose: 400.0 mg/kg/injection, schedule: Q01DX001 (ip), vehicle: other 94 % of control | [3] 115 % of control

CCCCCCCCCCCCCCCCN(C)C(=S)c1ccc(OC)cc1
inactive: [13] 101 % of control | [14] 101 % of control | [15] 94 % of control

Cc1ccc(NC(=O)COc2ccc(C)cc2C)cc1
inactive: dose: 100.0 mg/kg/injection, schedule: Q04DX002 (ip), vehicle: gum acacia 95 % of control | dose: 200.0 mg/kg/injection, schedule: Q04DX002 (ip), vehicle: gum acacia 89 % of control

CCCCNC(=O)NS(=O)(=O)c1ccc(C)cc1
inactive: [21] 96 % of control | [22] 96 % of control | [23] 89 % of control

O=C(NCCN1C(=O)C2C3CCC(O3)C2C1=O)Nc1ccc([N+](=O)[O-])cc1[N+](=O)[O-] (configuration not stated)
inactive: [16] 108 % of control | [17] 101 % of control | [18] 108 % of control

Cc1ccc(Cl)cc1NC(=O)C(Cl)Cl
inactive: [24] 92 % of control | [25] 89 % of control | dose: 400.0 mg/kg/injection, schedule: Q01DX009 (ip), vehicle: Klucel (hydroxypropylcellulose) (HPC) 90 % of control

O=C1CCC(C(=O)NC(Cc2cncn2Cc2ccccc2)C(=O)NC(COCc2ccccc2)Cc2c[nH]c3ccccc23)N1 (configuration not stated)
inactive: [4] 96 % of control | [6] 104 % of control | [8] 94 % of control

CN(C)CC(=O)Nc1cc(Cl)ccc1Oc1ccc(Cl)cc1
inactive: [5] 94 % of control | [7] 100 % of control | [9] 100 % of control

CC1OC(O[C@H]2C[C@@H](O)[C@]3(CO)[C@H]4[C@H](O)C[C@]5(C)[C@@H](C6=CC(=O)OC6)CC[C@]5(O)[C@@H]4CC[C@]3(O)C2)C(O)C(O)C1O (some centres not stated)
inactive: dose: 0.31 mg/kg/injection, schedule: Q01DX009 (ip), vehicle: saline 101 % of control | dose: 0.63 mg/kg/injection, schedule: Q01DX009 (ip), vehicle: saline 101 % of control | dose: 1.25 mg/kg/injection, schedule: Q01DX009 (ip), vehicle: saline 98 % of control | dose: 2.5 mg/kg/injection, schedule: Q01DX009 (ip), vehicle: saline 102 % of control and 108 % of control | dose: 12.5 mg/kg/injection, schedule: Q04DX003 (ip), vehicle: saline 92 % of control | dose: 25.0 mg/kg/injection, schedule: Q04DX003 (ip), vehicle: saline 103 % of control

CC(=O)OC(C(=O)c1ccccc1)C(=O)c1ccccc1
inactive: [21] 88 % of control | [22] 108 % of control | [23] 88 % of control

ClC(Cl)(Cl)c1cccc(C(Cl)(Cl)Cl)c1
inactive: [24] 121 % of control | [13] 105 % of control | [25] 101 % of control | [14] 95 % of control | [15] 95 % of control

CC1C2CCC(C2)C1C(=O)O (configuration not stated)
inactive: dose: 100.0 mg/kg/injection, schedule: Q01DX009 (ip), vehicle: other 97 % of control | [5] 96 % of control | dose: 200.0 mg/kg/injection, schedule: Q01DX009 (ip), vehicle: other 109 % of control | dose: 400.0 mg/kg/injection, schedule: Q01DX009 (ip), vehicle: other 95 % of control | [9] 87 % of control

S=C(Nc1cc2c3c(c1)CCCN3CCC2)Nc1cc2c3c(c1)CCCN3CCC2
inactive: dose: 50.0 mg/kg/injection, schedule: Q01DX001 (ip), vehicle: saline with Tween-80 107 % of control | dose: 100.0 mg/kg/injection, schedule: Q01DX001 (ip), vehicle: saline with Tween-80 94 % of control | dose: 200.0 mg/kg/injection, schedule: Q01DX001 (ip), vehicle: saline with Tween-80 97 % of control | dose: 400.0 mg/kg/injection, schedule: Q01DX001 (ip), vehicle: saline with Tween-80 89 % of control

C=CCc1cc(CNCC(C)O)c(O)c(OC)c1 (configuration not stated)
inactive: dose: 50.0 mg/kg/injection, schedule: Q04DX003 (ip), vehicle: Klucel (hydroxypropylcellulose) (HPC) 95 % of control | [13] 93 % of control
